From US6048884A, “Amide derivatives and medicinal compositions thereof” (Yamanouchi Pharmaceutical Co., Ltd., priority 1997, dated 2000)
Counter-ions that a name gives are not always drawn.

Experiments:
[1] = test system: kk mice (insulin-resisting model: obesity and hyperglycemia); assay: Hypoglycemic test in kk mice (insulin sensitivity potentiating action); type: in vivo; settings: oral administration of 10 mg/kg once daily for four days; blood sugar 15 to 18 hours after final administration vs level prior to administration; male kk mice, n=6; p<0.01
Method: 1. Hypoglycemic test in kk mice (insulin-resisting model: obesity and hyperglycemia) [insulin sensitivity potentiating action]:
Blood sugar levels under feeding were measured for male kk mice (sugar blood level being 200 mg/dl or more) and they were randomly divided into several groups. The drug to be tested was compulsorily administered per os once daily for four days and the blood sugar level after 15 to 18 hours from the final administration was compared with the level prior to the administration (n=6), whereupon a hypoglycemic rate (%) was calculated. Blood was collected from tail vein of the mouse using a glass capillary (previously treated with heparin), protein was removed therefrom and the amount of glucose (mg/dl) in the supernatant liquid was calorimetrically determined by a glucose oxidase method to obtain the blood sugar level.

[2] = test system: normal rats (male rats of SD-strain); assay: Sugar tolerance test in normal rats (OGTT; insulin secretion promoting action); type: in vivo; settings: 10 mg/kg orally 30 minutes before glucose 2 g/kg per os; fasted male SD rats, n=4
Method: 2. Sugar tolerance test in normal rats [insulin secretion promoting action]:
Male rats of SD-strain (seven weeks age) were fasted for one night and day, randomly divided into several groups and subjected to an oral glucose tolerance test (OGTT) (n=4). The compound to be tested was orally administered at 30 minutes before administration of glucose (2 g/kg per os). Blood was collected by a heparin-treated glass syringe from abdominal artery of the rat under anesthetization with 65 mg/kg of pentbarbital, protein was removed therefrom and the amount of glucose (mg/dl) in the supernatant liquid was calorimetrically determined by a glucose oxidase method to obtain the blood sugar level. Insulin level in blood was determined by measuring the amount of insulin (ng/ml) in plasma by means of a radio-immunoassay (RIA). The result was that, when 10 mg/kg of the compound of Example 4 was administered, insulin secretion increased to an extent of three-fold in terms of AUC ratio and blood sugar level decreased to 90% as compared with that prior to the administration.

SMILES	hypoglycemic rate [1]	blood sugar level decreased to, as compared with that prior to the administration [2]	insulin secretion increase in terms of AUC ratio (plasma insulin, RIA) [2]
O=C(Cc1csc(NCc2ccccc2)n1)Nc1ccc(CCNC[C@H](O)COc2ccccc2)cc1 [Example 1, (S)-2-(2-benzylamino-4-thiazolyl)-4'-[2-[(2-hydroxy-3-phenoxypropyl)amino]ethyl]acetanilide]	47%		
O=C(Cc1csc(Nc2cccc(F)c2)n1)Nc1ccc(CCNC[C@H](O)COc2ccccc2)cc1 [Example 2-b, (S)-2-[2-(3-fluoroanilino)-4-thiazol-4-yl)-4'-[2-[(2-hydroxy-3-phenoxypropyl)amino]ethyl]acetanilide]	52%		
CC(Cc1ccc(NC(=O)Cc2csc(Nc3ccccc3)n2)cc1)NC[C@H](O)COc1ccccc1 (stereo partly drawn) [Example 2-c, (S)-2-(2-anilino-4-thiazol-4-yl)-4'-{2-[(-2-hydroxy-3-phenoxypropyl)amino]propyl}acetanilide]	50%		
O=C(Cc1csc(Nc2ccccc2)n1)Nc1ccc(CCNC[C@H](O)COc2ccccc2)cc1 [Example 4, (S)-2-(2-phenylaminothiazol-4-yl)-4'-[2-[(2-hydroxy-3-phenoxyethyl)amino]ethyl]acetanilide dihydrochloride]	56%	90%	three-fold
